# Counter-ions that a name gives are not always drawn. Like-named read-outs stand apart in the source and are kept apart here.
# What was measured:
# C57BL/6J mice [1] = assay: Open field locomotion in mice; type: in vivo, mouse
# C57BL/6J mice [2] = assay: Head twitch response (HTR) in mice; type: in vivo, mouse; settings: s.c.
# Method: All samples were prepared the same day testing was performed. Solids were weighed into small vials and dissolved in USP grade 0.85% saline with addition of 2 molar equivalents of glacial acetic acid. Sonication and gentle heating were applied until complete dissolution. The compounds were subsequently filtered through 0.45 μm filters into a new glass vial. All compounds were administered at a 1 mg/kg subcutaneous dose at a volume of 10 mL/kg of body weight. Volinanserin hydrochloride salt (MDL 100907) was purchased from Toronto Research Chemicals.
# All experimental procedures involving animals were approved by an Institutional Animal Care and Use Committee (IACUC) and adhered to principles described in the National Institutes of Health Guide for the Care and Use of Laboratory Animals. The studies were conducted at AAALAC accredited facilities. Animals received regular veterinary care (weekly by institutional veterinarians) including daily health monitoring (by experimenters) of the animals (observing home cage behaviors, nesting, and body weight). All procedures were designed to minimize any stress/distress. Healthy adult male mice C57BL/6J (8-12 weeks, 26-33 g) were purchased from the Jackson Laboratory (Bar Harbor, ME) and housed 5 mice per cage with food and water available ad libitum. Mice were maintained on a 12-h light/dark cycle (lights on 7:00-19:00) and all testing was done in the light cycle. Temperature was kept constant at 22±2° C., and relative humidity was maintained at 50±5%
# The head-twitch response evaluation was performed by a trained observer who was blinded to both drug and dose. Mice were moved to the testing room 30 min before the experiment to allow for acclimation. The body weight of each mouse was recorded. Mice were administered either a 1, 3, 10, or 30 mg/kg s.c. dose of compound solution (volume of injection 260-330 μL based on body weight). […] The total number of head-twitches over the 15 minute period were recorded. Five mice were used per dose.
# DOI was tested at the doses of 0.3, 1, 3, and 10 mg/kg (s.c., 5 mice per dose) and testing began immediately after administration of the compound. Ariadne was tested at the doses of 1, 3, 10, and 30 mg/kg (s.c., 5 mice per dose) and there was a 10 min interval between treatment and testing.
# 5-HT2A [3] = biological target: T1, 5-HT2A (Homo sapiens, UniProt P28223); assay: Radioligand displacement assay; type: binding
# T1 sequence (P28223 whole entry): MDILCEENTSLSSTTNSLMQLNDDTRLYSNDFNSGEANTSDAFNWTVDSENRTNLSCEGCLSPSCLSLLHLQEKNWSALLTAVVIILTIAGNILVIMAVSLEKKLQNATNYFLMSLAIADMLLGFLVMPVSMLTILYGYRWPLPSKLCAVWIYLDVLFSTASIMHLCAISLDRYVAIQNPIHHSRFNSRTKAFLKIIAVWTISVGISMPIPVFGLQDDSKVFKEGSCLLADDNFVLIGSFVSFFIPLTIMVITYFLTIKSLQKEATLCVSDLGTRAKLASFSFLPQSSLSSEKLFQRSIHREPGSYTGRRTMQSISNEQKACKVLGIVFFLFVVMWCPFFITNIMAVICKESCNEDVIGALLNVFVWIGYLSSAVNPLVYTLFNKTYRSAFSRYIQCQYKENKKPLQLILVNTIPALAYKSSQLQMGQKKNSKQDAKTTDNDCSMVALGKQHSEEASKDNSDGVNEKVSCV
# Method: Therefore, an orthogonal assay measuring calcium flux was also performed for the 5-HT2 receptors (Klein et al., 2020).
# 5-HT2A [4] = biological target: T1, 5-HT2A; assay: IP1 agonism (IP1 formation assay), Cerep, Eurofins; type: cell-based; set-up: purchased Cerep, Eurofins (contract assay); settings: duplicate averages only
# Source text: (§1) FIGS. 8A-B Comparison of 5-HT2A (a) and 5-HT2B (b) receptor in IP1 formation assay for selected compounds, performed at Cerep, Eurofins.
# (§2) IP1 agonism summary for selected compounds (duplicate averages only), performed at Cerep, Eurofins.
# 5-HT2B [5] = biological target: T2, 5-HT2B (Homo sapiens, UniProt P41595); assay: IP1 agonism (IP1 formation assay), Cerep, Eurofins; type: cell-based; set-up: purchased Cerep, Eurofins (contract assay); settings: duplicate averages only
# T2 sequence (P41595 whole entry): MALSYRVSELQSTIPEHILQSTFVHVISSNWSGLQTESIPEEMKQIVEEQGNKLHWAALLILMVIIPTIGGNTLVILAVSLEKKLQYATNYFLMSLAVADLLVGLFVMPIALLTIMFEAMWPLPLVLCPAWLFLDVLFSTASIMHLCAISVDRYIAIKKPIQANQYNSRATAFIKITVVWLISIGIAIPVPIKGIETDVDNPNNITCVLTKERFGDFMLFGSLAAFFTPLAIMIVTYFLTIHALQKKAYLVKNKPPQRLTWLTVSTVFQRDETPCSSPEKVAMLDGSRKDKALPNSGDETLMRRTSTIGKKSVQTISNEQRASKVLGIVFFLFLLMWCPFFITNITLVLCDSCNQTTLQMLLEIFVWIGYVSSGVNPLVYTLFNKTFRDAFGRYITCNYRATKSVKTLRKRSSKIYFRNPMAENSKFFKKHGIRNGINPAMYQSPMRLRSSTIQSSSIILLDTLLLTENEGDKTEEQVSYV
# Source text: as §1, §2
# 5-HT2A [6] = biological target: T1, 5-HT2A; assay: G protein (Gq) dissociation BRET assay; type: cell-based; set-up: host or cells: HEK293T (ATCC CRL-11268)
# 5-HT2C receptor = biological target: T3, 5-HT2C receptor (Homo sapiens, UniProt P28335); assay: G protein (Gq) dissociation BRET assay; settings: read-out: Emax/Gq
# T3 sequence (P28335 33-458): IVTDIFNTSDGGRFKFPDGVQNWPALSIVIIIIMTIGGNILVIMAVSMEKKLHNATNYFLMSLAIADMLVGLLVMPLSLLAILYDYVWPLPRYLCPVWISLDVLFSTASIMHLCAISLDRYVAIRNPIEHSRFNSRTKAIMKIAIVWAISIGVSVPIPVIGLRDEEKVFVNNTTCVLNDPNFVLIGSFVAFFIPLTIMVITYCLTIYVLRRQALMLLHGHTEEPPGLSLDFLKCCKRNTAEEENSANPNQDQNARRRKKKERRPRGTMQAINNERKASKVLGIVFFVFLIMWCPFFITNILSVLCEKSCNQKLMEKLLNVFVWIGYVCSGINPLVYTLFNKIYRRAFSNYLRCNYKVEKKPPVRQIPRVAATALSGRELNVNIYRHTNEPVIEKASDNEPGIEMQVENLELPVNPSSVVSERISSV
# Method: (§3) All BRET assays were conducted using BRET2 in HEK293T cells (ATCC CRL-11268; mycoplasma-free), which were subcultured in high-glucose DMEM (VWR) supplemented with 10% FBS (Life Technologies).
# (§4) Constructs in G protein-dissociation BRET assays were derived from the codon-optimized Tango pcDNA3.1 library (Addgene) with V2tail/TEV/tTA encoding regions deleted to yield “de-Tango” constructs. […] All Gα-Rluc8, Beta, and GFP2-γ constructs were derived from the TRUPATH pcDNA5/FRT/TO library (Addgene).
# (§5) Approximately 48 hours before assays, cells were transfected using a reverse transfection method and plated in 1% dFBS at an approximate density of 15,000 cells per well into poly-L-lysine-coated 384-well white assay plates (Grenier Bio-One). For G protein-dissociation assays, cells were transfected in a 1:1:1:1 ratio of receptor: Gα-Rluc8: Beta: GFP2-γ constructs. […] All transfections were prepared in Opti-MEM (Invitrogen) and used a 3:1 ratio of TransIT-2020 (Mirus) uL:ug total DNA.
# (§6) On the day of the assay, plates were decanted and 20 uL of drug buffer per well (1×HBSS, 20 mM HEPES, pH 7.4) was added using a Multidrop (ThermoFisher Scientific), and plates were allowed to equilibrate at 37° C. in a humidified incubator before receiving drug stimulation. Drug dilutions of all compounds were performed in McCorvy buffer (1×HBSS, 20 mM HEPES, pH 7.4, supplemented with 0.3% BSA fatty acid free (GoldBio), and 0.03% ascorbic acid). […] Next, plates were incubated at 37° C. in a humidified incubator for 60 minutes or specified time point. Before reading, addition of coelenterazine 400a (5 uM final concentration; Nanolight Technology) was performed by the [sequence]. Immediately after, plates were read at 400 nm Rluc and fluorescent GFP2 emission at 510 nm for BRET2 at 0.8 second per well using a PheraStarFSX (BMB Lab Tech).
# (§7) The BRET ratios of 510/400 luminescence were calculated per well and were plotted as a function of drug concentration using Graphpad Prism 5 or 9 (Graphpad Software Inc., San Diego, CA). Data were normalized to % positive control stimulation and analyzed using nonlinear regression “log(agonist) vs. response” to yield Emax and EC50 parameter estimates.
# 5-HT2B [7] = biological target: T2, 5-HT2B; assay: G protein (Gq) dissociation BRET assay
# Method: as §3, §4, §5, §6, §7
# humans = settings: per oral administration; cited from earlier work
# [8] = EC50 (5-HT2B) (M), Table 7, IP1 agonism
# [9] = EC50 (5-HT2A) (M), Table 7, IP1 agonism
smiles,measurement,setting,value
"CCCc1cc(OC)c(CC(C)N)cc1OC (racemic) [Compound 44, 1-(2,5-dimethoxy-4-propylphenyl) propan-2-amine, reference compound]",time in the center of the arena,C57BL/6J mice [1]; open field,trend for spending less time in the center
same,effects on locomotion,"C57BL/6J mice [1]; s.c., trending toward increased locomotion at HTR peak dose (1 mg/kg)",minor to no effects on locomotion
same,HTR response,C57BL/6J mice [2],robust dose-dependent HTR response
same,dose of maximum (peak) HTR,C57BL/6J mice [2],1 mg/kg
same,time to maximum HTR frequency post-drug administration,C57BL/6J mice [2],10 min
CC[C@H](N)Cc1cc(OC)c(C)cc1OC [(S)-Ariadne],Ki,5-HT2A [3],220 nM
"CCC(N)Cc1cc(OC)c(C#N)cc1OC (centres unmarked) [Compound 4, 4-(2-aminobutyl)-2,5-dimethoxybenzonitrile trifluoroacetate]",EC50,"5-HT2A [4]; 5-HT2a (IP1 agonism), Table 2",1.1e-05 M
"CCSc1cc(OC)c(CC(N)CC)cc1OC (centres unmarked) [Compound 27, 1-(4-(ethylthio)-2,5-dimethoxyphenyl)butan-2-amine]",EC50,"5-HT2B [5]; 5-HT2b (IP1 agonism), Table 2",6.3e-07 M
same,EC50,"5-HT2A [4]; 5-HT2a (IP1 agonism), Table 2",5.3e-08 M
"CCC(N)Cc1cc(OC)c(SC)cc1OC (centres unmarked) [Compound 28, 1-(2,5-dimethoxy-4-(methylthio)phenyl)butan-2-amine]",EC50,"5-HT2B [5]; 5-HT2b (IP1 agonism), Table 2",6.6e-08 M
same,EC50,"5-HT2A [4]; 5-HT2a (IP1 agonism), Table 2",1.6e-07 M
"CCC(N)Cc1cc(OC)c(C2CC2)cc1OC (centres unmarked) [Compound 30, 1-(4-cyclopropyl-2,5-dimethoxyphenyl)butan-2-amine]",EC50,"5-HT2A [4]; 5-HT2a (IP1 agonism), Table 2",3.7e-06 M
"CCC(N)Cc1cc(OC)c(Br)cc1OC (centres unmarked) [Compound 31, 1-(4-bromo-2,5-dimethoxyphenyl)butan-2-amine]",EC50,"5-HT2B [5]; 5-HT2b (IP1 agonism), Table 2",5.5e-06 M
same,EC50,"5-HT2A [4]; 5-HT2a (IP1 agonism), Table 2",9e-08 M
"CCC(N)Cc1cc(OC)c(S(C)(=O)=O)cc1OC (centres unmarked) [Compound 33, 1-(2,5-dimethoxy-4-(methylsulfonyl)phenyl)butan-2-amine trifluoroacetate]",EC50,"5-HT2B [5]; 5-HT2b (IP1 agonism), Table 2",2.5e-05 M
same,EC50,"5-HT2A [4]; 5-HT2a (IP1 agonism), Table 2",3.4e-06 M
"CCC(N)Cc1cc(OC)c(I)cc1OC (centres unmarked) [Compound 34, 1-(4-iodo-2,5-dimethoxyphenyl)butan-2-amine]",EC50,"5-HT2A [6]; EC50 (EC50/Gq), Gq dissociation, Gq dissociation BRET",16 nM
same,increase in Gq potency compared to Ariadne,5-HT2A [6]; EC50/Gq comparison,> 10 fold
same,EC50,"5-HT2B [5]; 5-HT2b (IP1 agonism), Table 2",1.8e-05 M
same,EC50,"5-HT2A [4]; 5-HT2a (IP1 agonism), Table 2",9.7e-06 M
"CCc1cc(OC)c(CC(N)CC)cc1OC (centres unmarked) [Compound 35, 1-(4-ethyl-2,5-dimethoxyphenyl)butan-2-amine]",EC50,"5-HT2B [5]; 5-HT2b (IP1 agonism), Table 2",5.7e-07 M
same,EC50,"5-HT2A [4]; 5-HT2a (IP1 agonism), Table 2",1.9e-06 M
"CCOc1cc(CC(N)CC)c(OC)cc1C(F)(F)F (centres unmarked) [Compound 36, 1-(5-ethoxy-2-methoxy-4-(trifluoromethyl)phenyl)butan-2-amine]",EC50,"5-HT2B [5]; 5-HT2b (IP1 agonism), Table 2",9.5e-07 M
same,EC50,"5-HT2A [4]; 5-HT2a (IP1 agonism), Table 2",2.8e-07 M
"CCC(N)Cc1cc(OC)c(COC)cc1OC (centres unmarked) [Compound 37, 1-(2,5-dimethoxy-4-(methoxymethyl)phenyl)butan-2-amine]",less potent at 5-HT2A compared to Ariadne,5-HT2A [6]; Gq dissociation,approximately 2 fold
same,Emax,"5-HT2A [6]; Gq dissociation BRET, normalized to 5-HT, read-out: Emax (Emax/Gq) relative to 5-HT",78%
same,Emax,5-HT2C receptor,82%
same,potency at 5-HT2B compared to Ariadne,5-HT2B [7]; Gq dissociation,twice as potent
same,Emax,5-HT2B [7]; read-out: Emax/Gq,43%
same,HTR response,C57BL/6J mice [2],only residual HTR
"COc1cc(CC(N)C2CC2)c(OC)cc1C (centres unmarked) [Compound 38, 1-cyclopropyl-2-(2,5-dimethoxy-4-methylphenyl)ethan-1-amine]",EC50,"5-HT2B [5]; Table 2, read-out: 5-HT2b (IP1 agonism)",2.1e-05 M
same,EC50,"5-HT2A [4]; Table 2, read-out: 5-HT2a (IP1 agonism)",9.7e-06 M
"CCCC(N)Cc1cc(OC)c(C)cc1OC (centres unmarked) [Compound 39, 1-(2,5-dimethoxy-4-methylphenyl) pentan-2-amine]",EC50,"5-HT2B [5]; 5-HT2b (IP1 agonism), Table 2",2.3e-05 M
same,HTR response,C57BL/6J mice [2],indistinguishable from vehicle
"CCC(N)Cc1c(OC)cc(C)cc1OC (centres unmarked) [Compound 40, 1-(2,6-dimethoxy-4-methylphenyl)butan-2-amine]",EC50,"5-HT2A [4]; 5-HT2a (IP1 agonism), Table 2",1e-05 M
"CCC(N)Cc1cc(OC)c(Cl)cc1OC (centres unmarked) [Compound 41, 1-(4-chloro-2,5-dimethoxyphenyl)butan-2-amine]",EC50,"5-HT2B [5]; 5-HT2b (IP1 agonism), Table 2",1.4e-05 M
same,EC50,"5-HT2A [4]; 5-HT2a (IP1 agonism), Table 2",1.9e-07 M
"CCCc1cc(OC)c(CC(N)CC)cc1OC (centres unmarked) [Compound 42, 1-(2,5-dimethoxy-4-propylphenyl)butan-2-amine]",EC50,"5-HT2A [4]; 5-HT2a (IP1 agonism), Table 2",2.1e-07 M
"CCC(N)Cc1cc(OC)c(C(C)(F)F)cc1OC (centres unmarked) [Compound 50, 1-(4-(1,1-difluoroethyl)-2,5-dimethoxyphenyl)butan-2-amine]",EC50,5-HT2B [5]; [8],1.1e-07 M
same,EC50,5-HT2A [4]; [9],2.5e-08 M
"CCC(N)Cc1cc(OC)c(C(F)(F)CC)cc1OC (centres unmarked) [Compound 53, 1-(4-(1,1-difluoropropyl)-2,5-dimethoxyphenyl)butan-2-amine]",EC50,5-HT2B [5]; [8],1.9e-07 M
same,EC50,5-HT2A [4]; [9],5.7e-08 M
"CCC(N)Cc1cc(OC)c(CC(C)(F)F)cc1OC (centres unmarked) [Compound 58, 1-(4-(2,2-difluoropropyl)-2,5-dimethoxyphenyl)butan-2-amine]",EC50,5-HT2A [4]; [9],4.3e-06 M
"COc1cc(CC(C)N)c(OC)cc1C (centres unmarked) [DOM, 2,5 Dimethoxy-4-methylamphetamine, reference compound]",potency in humans relative to mescaline,humans,approximately 100 times
